Experimental data taken from the kinase profiling compilation of Christmann-Franck et al. (2016).

Experiments:
Assay in all cases: radiometric filter-binding kinase assay
PKN2 (human) = PKN2 (human) (UniProt Q16513)
INSRR (human) = INSRR (human) (UniProt P14616)
MAP3K9 (human) = MAP3K9 (human) (UniProt P80192)
LCK (mouse) = settings: accession and sequence are those of the human protein
PIM2 (human) = PIM2 (human) (UniProt Q9P1W9)
NEK2 (human) = NEK2 (human) (UniProt P51955)
TBK1 (human) = TBK1 (human) (UniProt Q9UHD2)
MAP2K1 (human) = MAP2K1 (human) (UniProt Q02750)
MAPK10 (human) = MAPK10 (human) (UniProt P53779)
MAPK13 (human) = MAPK13 (human) (UniProt O15264)
[1] = test system: RPS6KB1 (human), P23443 [T412E]
RPS6KB1 (human), P23443 [T412E], sequence (P23443 whole entry T412E, looked up): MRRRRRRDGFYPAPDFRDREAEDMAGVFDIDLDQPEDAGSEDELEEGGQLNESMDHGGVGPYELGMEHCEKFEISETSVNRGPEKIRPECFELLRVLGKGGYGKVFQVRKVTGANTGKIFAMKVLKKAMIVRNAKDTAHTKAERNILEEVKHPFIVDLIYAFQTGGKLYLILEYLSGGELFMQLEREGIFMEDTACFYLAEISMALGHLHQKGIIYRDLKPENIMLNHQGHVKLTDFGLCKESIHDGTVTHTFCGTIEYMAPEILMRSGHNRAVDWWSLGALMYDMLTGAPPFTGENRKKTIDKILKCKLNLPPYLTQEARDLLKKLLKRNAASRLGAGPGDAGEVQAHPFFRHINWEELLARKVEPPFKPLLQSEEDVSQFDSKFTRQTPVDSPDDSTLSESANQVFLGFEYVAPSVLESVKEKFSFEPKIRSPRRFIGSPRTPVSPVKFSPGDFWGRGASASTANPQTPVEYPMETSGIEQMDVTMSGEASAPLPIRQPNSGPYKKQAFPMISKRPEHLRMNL

TTK (human) = TTK (human) (UniProt P33981)
GSK3B (human) = GSK3B (human) (UniProt P49841)
PHKG1 (human) = PHKG1 (human) (UniProt Q16816)
NEK6 (human) = NEK6 (human) (UniProt Q9HC98)
MYLK (human) = MYLK (human) (UniProt Q15746)
IRAK4 (human) = IRAK4 (human) (UniProt Q9NWZ3)
FGFR1 (human) = FGFR1 (human) (UniProt P11362)
SYK (human) = SYK (human) (UniProt P43405)
EPHA2 (human) = EPHA2 (human) (UniProt P29317)
EPHA2 (human), sequence (P29317 whole entry, looked up): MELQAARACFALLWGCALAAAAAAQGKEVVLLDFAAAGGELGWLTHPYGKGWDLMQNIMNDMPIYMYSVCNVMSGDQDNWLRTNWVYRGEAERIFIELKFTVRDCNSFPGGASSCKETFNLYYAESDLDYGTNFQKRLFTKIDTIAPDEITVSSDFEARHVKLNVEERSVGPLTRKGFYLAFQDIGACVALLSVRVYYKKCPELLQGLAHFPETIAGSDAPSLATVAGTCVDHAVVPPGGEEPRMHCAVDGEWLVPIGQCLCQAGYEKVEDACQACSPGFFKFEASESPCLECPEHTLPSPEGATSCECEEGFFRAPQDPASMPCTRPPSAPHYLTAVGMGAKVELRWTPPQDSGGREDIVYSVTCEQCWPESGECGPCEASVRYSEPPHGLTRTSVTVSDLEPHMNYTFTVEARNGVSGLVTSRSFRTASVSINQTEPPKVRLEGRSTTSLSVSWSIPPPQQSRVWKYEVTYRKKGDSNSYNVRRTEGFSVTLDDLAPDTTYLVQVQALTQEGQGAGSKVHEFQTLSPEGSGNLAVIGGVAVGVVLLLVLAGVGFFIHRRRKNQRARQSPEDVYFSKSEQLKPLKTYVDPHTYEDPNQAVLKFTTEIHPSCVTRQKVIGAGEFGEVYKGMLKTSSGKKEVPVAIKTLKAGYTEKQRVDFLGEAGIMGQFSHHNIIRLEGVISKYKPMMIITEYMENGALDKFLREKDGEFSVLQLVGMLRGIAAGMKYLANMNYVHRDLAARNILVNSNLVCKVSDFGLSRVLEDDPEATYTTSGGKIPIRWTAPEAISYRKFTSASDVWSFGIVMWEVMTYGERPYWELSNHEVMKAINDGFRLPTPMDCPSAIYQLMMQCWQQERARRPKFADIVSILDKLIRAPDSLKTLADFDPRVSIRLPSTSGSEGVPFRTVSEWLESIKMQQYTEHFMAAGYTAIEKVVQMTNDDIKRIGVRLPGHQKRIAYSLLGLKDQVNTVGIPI

MAPK11 (human) = MAPK11 (human) (UniProt Q15759)
[2] = molecular target: STK11 CAB39 STRADA (human) (UniProt Q9Y376+Q7RTN6+Q15831)
ROCK2 (rat) = settings: accession and sequence are those of the human protein
MARK2 (human) = MARK2 (human) (UniProt Q7KZI7)
MARK1 (human) = MARK1 (human) (UniProt Q9P0L2)
MARK1 (human), sequence (Q9P0L2 whole entry, looked up): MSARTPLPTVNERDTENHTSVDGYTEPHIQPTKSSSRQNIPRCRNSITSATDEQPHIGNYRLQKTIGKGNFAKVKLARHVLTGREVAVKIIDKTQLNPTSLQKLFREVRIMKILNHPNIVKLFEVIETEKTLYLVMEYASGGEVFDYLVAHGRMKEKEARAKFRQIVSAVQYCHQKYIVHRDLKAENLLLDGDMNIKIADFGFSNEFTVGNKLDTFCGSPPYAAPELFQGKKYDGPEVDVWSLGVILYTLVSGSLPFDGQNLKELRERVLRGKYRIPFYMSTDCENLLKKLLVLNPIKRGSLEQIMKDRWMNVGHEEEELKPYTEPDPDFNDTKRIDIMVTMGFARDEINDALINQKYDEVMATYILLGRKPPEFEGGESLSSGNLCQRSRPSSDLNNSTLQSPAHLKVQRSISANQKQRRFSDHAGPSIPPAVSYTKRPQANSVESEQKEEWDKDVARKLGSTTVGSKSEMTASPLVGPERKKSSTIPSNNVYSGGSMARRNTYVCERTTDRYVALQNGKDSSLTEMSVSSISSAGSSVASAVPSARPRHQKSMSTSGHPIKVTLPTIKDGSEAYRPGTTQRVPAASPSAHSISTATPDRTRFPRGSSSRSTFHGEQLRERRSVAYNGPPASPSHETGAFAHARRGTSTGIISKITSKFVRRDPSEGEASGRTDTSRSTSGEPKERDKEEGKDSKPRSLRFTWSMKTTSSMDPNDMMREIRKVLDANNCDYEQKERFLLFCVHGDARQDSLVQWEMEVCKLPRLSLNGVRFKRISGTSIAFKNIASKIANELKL

MKNK1 (human) = MKNK1 (human) (UniProt Q9BUB5)
[3] = test system: AKT2 (human), P31751 [S474D]
AKT2 (human), P31751 [S474D], sequence (P31751 whole entry S474D, looked up): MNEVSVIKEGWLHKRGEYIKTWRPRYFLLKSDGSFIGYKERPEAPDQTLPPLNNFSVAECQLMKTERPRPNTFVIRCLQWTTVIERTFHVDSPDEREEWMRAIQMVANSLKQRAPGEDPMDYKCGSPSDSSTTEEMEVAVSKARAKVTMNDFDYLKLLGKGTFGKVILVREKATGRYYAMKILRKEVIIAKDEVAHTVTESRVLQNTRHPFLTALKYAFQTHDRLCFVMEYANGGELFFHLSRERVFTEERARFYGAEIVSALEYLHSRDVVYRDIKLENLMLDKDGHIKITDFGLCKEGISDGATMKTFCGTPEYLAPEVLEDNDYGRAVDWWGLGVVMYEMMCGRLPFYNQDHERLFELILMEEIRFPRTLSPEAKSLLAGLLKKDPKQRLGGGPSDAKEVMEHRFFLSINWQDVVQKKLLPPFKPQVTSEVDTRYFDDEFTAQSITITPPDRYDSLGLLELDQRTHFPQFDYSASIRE

PIM3 (human) = PIM3 (human) (UniProt Q86V86)
CSNK2A1 (human) = CSNK2A1 (human) (UniProt P68400)
SRPK1 (human) = SRPK1 (human) (UniProt Q96SB4)
SRPK1 (human), sequence (Q96SB4 whole entry, looked up): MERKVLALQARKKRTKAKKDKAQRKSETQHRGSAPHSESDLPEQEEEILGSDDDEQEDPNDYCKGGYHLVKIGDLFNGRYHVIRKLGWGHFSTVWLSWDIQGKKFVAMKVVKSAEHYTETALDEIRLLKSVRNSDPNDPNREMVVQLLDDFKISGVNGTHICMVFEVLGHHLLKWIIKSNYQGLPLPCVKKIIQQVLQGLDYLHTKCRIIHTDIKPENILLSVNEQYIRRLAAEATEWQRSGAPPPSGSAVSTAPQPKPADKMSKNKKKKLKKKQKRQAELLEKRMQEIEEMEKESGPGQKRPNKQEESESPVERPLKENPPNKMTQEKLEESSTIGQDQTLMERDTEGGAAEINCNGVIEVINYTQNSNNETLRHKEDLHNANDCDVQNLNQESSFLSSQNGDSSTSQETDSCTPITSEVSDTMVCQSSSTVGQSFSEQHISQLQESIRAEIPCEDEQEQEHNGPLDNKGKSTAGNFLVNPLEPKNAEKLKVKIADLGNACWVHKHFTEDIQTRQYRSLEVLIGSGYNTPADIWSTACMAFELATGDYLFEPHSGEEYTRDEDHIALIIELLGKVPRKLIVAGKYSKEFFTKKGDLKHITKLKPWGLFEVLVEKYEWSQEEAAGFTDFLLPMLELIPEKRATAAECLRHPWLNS

DYRK3 (human) = DYRK3 (human) (UniProt O43781)
DYRK3 (human), sequence (O43781 whole entry, looked up): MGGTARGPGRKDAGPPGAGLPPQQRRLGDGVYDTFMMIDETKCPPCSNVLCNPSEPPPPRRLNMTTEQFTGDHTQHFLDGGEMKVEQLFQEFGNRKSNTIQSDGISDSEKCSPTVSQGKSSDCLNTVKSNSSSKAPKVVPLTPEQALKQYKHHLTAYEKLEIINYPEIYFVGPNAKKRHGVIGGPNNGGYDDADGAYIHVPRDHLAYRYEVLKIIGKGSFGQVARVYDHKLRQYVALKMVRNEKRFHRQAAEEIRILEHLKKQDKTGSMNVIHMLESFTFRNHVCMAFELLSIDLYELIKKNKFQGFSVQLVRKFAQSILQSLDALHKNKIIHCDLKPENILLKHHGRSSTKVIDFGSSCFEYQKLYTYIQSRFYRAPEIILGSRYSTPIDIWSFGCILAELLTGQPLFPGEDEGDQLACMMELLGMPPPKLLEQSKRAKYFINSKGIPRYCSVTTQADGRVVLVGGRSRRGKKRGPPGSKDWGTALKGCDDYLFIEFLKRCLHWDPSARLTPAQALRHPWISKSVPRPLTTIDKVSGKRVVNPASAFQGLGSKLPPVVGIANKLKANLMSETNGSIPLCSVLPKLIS

[4] = test system: AKT1 (human), P31749 [S473D]
INSR (human) = INSR (human) (UniProt P06213)
[5] = test system: PAK2 (human), Q13177 [T402E]
PAK2 (human), Q13177 [T402E], sequence (Q13177 whole entry T402E, looked up): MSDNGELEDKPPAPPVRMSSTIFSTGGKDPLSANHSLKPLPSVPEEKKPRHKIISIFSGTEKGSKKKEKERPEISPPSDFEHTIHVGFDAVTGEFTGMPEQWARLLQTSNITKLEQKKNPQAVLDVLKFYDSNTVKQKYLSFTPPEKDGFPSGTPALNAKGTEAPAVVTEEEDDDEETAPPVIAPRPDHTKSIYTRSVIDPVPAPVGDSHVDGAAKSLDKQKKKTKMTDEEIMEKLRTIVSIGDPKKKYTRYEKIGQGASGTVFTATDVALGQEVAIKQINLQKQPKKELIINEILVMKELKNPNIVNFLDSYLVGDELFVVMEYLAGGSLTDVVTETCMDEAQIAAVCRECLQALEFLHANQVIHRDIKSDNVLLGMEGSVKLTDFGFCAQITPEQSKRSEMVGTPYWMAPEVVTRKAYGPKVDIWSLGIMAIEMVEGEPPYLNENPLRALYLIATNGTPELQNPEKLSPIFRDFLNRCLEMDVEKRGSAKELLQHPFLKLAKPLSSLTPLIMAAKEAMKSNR

PIM2 (human), sequence (Q9P1W9 whole entry, looked up): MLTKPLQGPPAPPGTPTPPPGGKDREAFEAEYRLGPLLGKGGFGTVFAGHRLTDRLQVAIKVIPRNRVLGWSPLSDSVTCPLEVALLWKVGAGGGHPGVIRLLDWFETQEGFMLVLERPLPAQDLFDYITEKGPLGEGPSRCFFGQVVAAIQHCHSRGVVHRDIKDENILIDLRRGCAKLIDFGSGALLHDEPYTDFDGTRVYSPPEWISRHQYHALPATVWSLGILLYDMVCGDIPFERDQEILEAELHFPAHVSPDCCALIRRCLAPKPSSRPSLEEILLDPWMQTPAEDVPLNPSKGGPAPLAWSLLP

SMILES: NC(=O)c1cc2c(-c3cccc(-c4ccccc4)c3)cnc(N)c2s1
- residual activity (PKN2 (human); compound 0.1 µM): 100%
- residual activity (PKN2 (human); compound 1.0 µM): 76%
- residual activity (PKN2 (human); compound 10.0 µM): 29%
- residual activity (INSRR (human); compound 0.1 µM): 66%
- residual activity (INSRR (human); compound 1.0 µM): 26%
- residual activity (INSRR (human); compound 10.0 µM): 16%
- residual activity (MAP3K9 (human); compound 0.1 µM): 54%
- residual activity (MAP3K9 (human); compound 1.0 µM): 18%
- residual activity (MAP3K9 (human); compound 10.0 µM): 6%
- residual activity (LCK (mouse); compound 0.1 µM): 105%
- residual activity (LCK (mouse); compound 1.0 µM): 88%
- residual activity (LCK (mouse); compound 10.0 µM): 67%
- residual activity (PIM2 (human); compound 0.1 µM): 98%
- residual activity (PIM2 (human); compound 1.0 µM): 95%
- residual activity (PIM2 (human); compound 10.0 µM): 81%
- residual activity (NEK2 (human); compound 0.1 µM): 88%
- residual activity (NEK2 (human); compound 1.0 µM): 74%
- residual activity (NEK2 (human); compound 10.0 µM): 44%
- residual activity (TBK1 (human); compound 0.1 µM): 98%
- residual activity (TBK1 (human); compound 1.0 µM): 91%
- residual activity (TBK1 (human); compound 10.0 µM): 47%
- residual activity (MAP2K1 (human); compound 0.1 µM): 90%
- residual activity (MAP2K1 (human); compound 1.0 µM): 86%
- residual activity (MAP2K1 (human); compound 10.0 µM): 17%
- residual activity (MAPK10 (human); compound 0.1 µM): 97%
- residual activity (MAPK10 (human); compound 10.0 µM): 46%
- residual activity (MAPK13 (human); compound 0.1 µM): 83%
- residual activity (MAPK13 (human); compound 1.0 µM): 77%
- residual activity (MAPK13 (human); compound 10.0 µM): 36%
- residual activity ([1]; compound 0.1 µM): 112%
- residual activity ([1]; compound 1.0 µM): 90%
- residual activity ([1]; compound 10.0 µM): 39%
- residual activity (TTK (human); compound 0.1 µM): 87%
- residual activity (TTK (human); compound 1.0 µM): 55%
- residual activity (TTK (human); compound 10.0 µM): 24%
- residual activity (GSK3B (human); compound 0.1 µM): 68%
- residual activity (GSK3B (human); compound 1.0 µM): 16%
- residual activity (GSK3B (human); compound 10.0 µM): 4%
- residual activity (PHKG1 (human); compound 0.1 µM): 104%
- residual activity (PHKG1 (human); compound 1.0 µM): 92%
- residual activity (PHKG1 (human); compound 10.0 µM): 55%
- residual activity (NEK6 (human); compound 0.1 µM): 108%
- residual activity (NEK6 (human); compound 1.0 µM): 98%
- residual activity (NEK6 (human); compound 10.0 µM): 135%
- residual activity (MYLK (human); compound 0.1 µM): 98%
- residual activity (MYLK (human); compound 1.0 µM): 53%
- residual activity (MYLK (human); compound 10.0 µM): 17%
- residual activity (IRAK4 (human); compound 0.1 µM): 127%
- residual activity (IRAK4 (human); compound 1.0 µM): 92%
- residual activity (IRAK4 (human); compound 10.0 µM): 44%
- residual activity (FGFR1 (human); compound 0.1 µM): 104%
- residual activity (FGFR1 (human); compound 1.0 µM): 96%
- residual activity (FGFR1 (human); compound 10.0 µM): 85%
- residual activity (SYK (human); compound 0.1 µM): 96%
- residual activity (SYK (human); compound 1.0 µM): 88%
- residual activity (SYK (human); compound 10.0 µM): 56%
- residual activity (EPHA2 (human); compound 0.1 µM): 87%
- residual activity (EPHA2 (human); compound 1.0 µM): 78%
- residual activity (EPHA2 (human); compound 10.0 µM): 86%
- residual activity (MAPK11 (human); compound 0.1 µM): 96%
- residual activity (MAPK11 (human); compound 1.0 µM): 111%
- residual activity (MAPK11 (human); compound 10.0 µM): 80%
- residual activity ([2]; compound 0.1 µM): 105%
- residual activity ([2]; compound 1.0 µM): 57%
- residual activity ([2]; compound 10.0 µM): 23%
- residual activity (ROCK2 (rat); compound 0.1 µM): 75%
- residual activity (ROCK2 (rat); compound 1.0 µM): 31%
- residual activity (ROCK2 (rat); compound 10.0 µM): 7%
- residual activity (MARK2 (human); compound 0.1 µM): 103%
- residual activity (MARK2 (human); compound 1.0 µM): 65%
- residual activity (MARK2 (human); compound 10.0 µM): 28%
- residual activity (MARK1 (human); compound 0.1 µM): 78%
- residual activity (MARK1 (human); compound 1.0 µM): 66%
- residual activity (MARK1 (human); compound 10.0 µM): 37%
- residual activity (MKNK1 (human); compound 0.1 µM): 107%
- residual activity (MKNK1 (human); compound 1.0 µM): 114%
- residual activity (MKNK1 (human); compound 10.0 µM): 99%
- residual activity ([3]; compound 0.1 µM): 94%
- residual activity ([3]; compound 1.0 µM): 88%
- residual activity ([3]; compound 10.0 µM): 98%
- residual activity (PIM3 (human); compound 0.1 µM): 101%
- residual activity (PIM3 (human); compound 1.0 µM): 88%
- residual activity (PIM3 (human); compound 10.0 µM): 42%
- residual activity (CSNK2A1 (human); compound 0.1 µM): 91%
- residual activity (CSNK2A1 (human); compound 1.0 µM): 94%
- residual activity (CSNK2A1 (human); compound 10.0 µM): 100%
- residual activity (SRPK1 (human); compound 0.1 µM): 87%
- residual activity (SRPK1 (human); compound 1.0 µM): 67%
- residual activity (SRPK1 (human); compound 10.0 µM): 17%
- residual activity (DYRK3 (human); compound 0.1 µM): 97%
- residual activity (DYRK3 (human); compound 1.0 µM): 76%
- residual activity (DYRK3 (human); compound 10.0 µM): 59%
- residual activity ([4]; compound 0.1 µM): 105%
- residual activity ([4]; compound 1.0 µM): 104%
- residual activity ([4]; compound 10.0 µM): 108%
- residual activity (INSR (human); compound 0.1 µM): 103%
- residual activity (INSR (human); compound 1.0 µM): 81%
- residual activity (INSR (human); compound 10.0 µM): 18%
- residual activity ([5]; compound 0.1 µM): 100%
- residual activity ([5]; compound 1.0 µM): 93%
- residual activity ([5]; compound 10.0 µM): 84%
